According to patent US20100004128A1, “HERBICIDAL ISOXAZOLINE COMPOUNDS” (SYNGENTA CROP PROTECTION, INC., priority 2006, published 2010):

Tests used:
[1] = tested on: Monocotyledonous and dicotyledonous test plants; experiment: Herbicidal action, application pre-emergence; assay type: in vivo; parameters: key: 10=total damage to plant; 0=no damage to plant; conditions: spray solution 1000 mg/l, scale 0-10; for Herbicidal action (damage score) AGSTE: Agrostis tenius; for Herbicidal action (damage score) AMARE: Amaranthus retroflexus; for Herbicidal action (damage score) DIGSA: Digitaria sanguinalis; for Herbicidal action (damage score) POATR: Poa trivialis; for Herbicidal action (damage score) SETIT: Setaria italica; for Herbicidal action (damage score) SETFA: Setaria faberi
Protocol: Monocotyledonous and dicotyledonous test plants were sown in sterilised standard soil in seed trays each having 96 cells. After one day (pre-emergence) or after 8 to 9 days cultivation (post-emergence) under controlled conditions in a climatic chamber (cultivation at 23/17° C., day/night; 13 hours light; 50-60% humidity; after application at 24/19° C., day/night), the plants were treated with an aqueous spray solution of 1000 mg/l of the active ingredient used (incl. 10% DMSO as solvent). The plants were grown on in the climatic chamber until the test was evaluated (10=total damage to plant, 0=no damage to plant) after 9 or 13 days.

SMILES | Herbicidal action (damage score) AGSTE [1] | Herbicidal action (damage score) AMARE [1] | Herbicidal action (damage score) DIGSA [1] | Herbicidal action (damage score) POATR [1] | Herbicidal action (damage score) SETIT [1] | Herbicidal action (damage score) SETFA [1] | melting point [°C]
Cc1nn(C)nc1C(F)(Cl)S(=O)(=O)C1=NOC(C)(C)C1 (racemic) [Compound No. 1.07] | 10 | 9 | 10 | 10 | 9 |  | 
CC1(C)CC(S(=O)(=O)C(F)c2nn(C3CCCC3)nc2C(F)(F)F)=NO1 (racemic) [1.28] | 10 | 9 | 9 | 10 |  | 8 | 
CCc1nn(C)nc1C(F)(F)S(=O)(=O)C1=NOC(C)(C)C1 [1.26] | 10 | 10 | 10 | 10 |  | 10 | 
Cn1nnc(Br)c1C(F)[S+]([O-])C1=NOC(C)(C)C1 (mixture of isomers) [Compound No. 3.05] | 10 | 8 | 10 | 10 |  | 9 | 
CCn1ncc(C(F)(F)[S+]([O-])C2=NOC(C)(C)C2)n1 (stereo not shown) [1.40] | 10 | 10 | 9 | 10 |  | 9 | 
CCn1ncc(C(F)[S+]([O-])C2=NOC(C)(C)C2)n1 (mixture of isomers) [1.39] | 10 | 9 | 9 | 10 |  | 9 | 
Cn1ncc(C(F)(F)S(=O)(=O)C2=NOC(C)(C)C2)n1 [1.35] | 10 | 10 | 9 | 10 |  | 9 | 
Cc1nn(C(F)F)nc1C(F)(F)[S+]([O-])C1=NOC(C)(C)C1 (racemic) [1.22] | 10 | 10 | 10 | 10 |  | 9 | 
Cn1nc(CF)c(C(F)(Cl)S(=O)(=O)C2=NOC(C)(C)C2)n1 (stereo not shown) [Compound No. 1.03, 4-[chloro-(5,5-dimethyl-4,5-dihydro-isoxazole-3-sulfonyl)-fluoro-methyl]-5-fluoromethyl-2-methyl-2H-[1,2,3]triazole] | 10 | 8 | 10 | 10 | 9 |  | 80
Cc1nn(C(C)C)nc1C(F)(F)S(=O)(=O)C1=NOC(C)(C)C1 [1.41] | 10 | 10 | 10 | 10 |  | 9 | 
Cc1nn(C)nc1C(F)(F)[S+]([O-])C1=NOC(C)(C)C1 (stereo not shown) [Compound No. 1.08, 4-[(5,5-dimethyl-4,5-dihydro-isoxazole-3-sulfinyl)-difluoro-methyl]-2,5-dimethyl-2H-1,2,31-triazole] | 10 | 10 | 10 | 10 |  | 9 | 
COCCn1nc(C(F)(F)F)c(C(F)(F)S(=O)(=O)C2=NOC(C)(C)C2)n1 [1.23] | 10 | 10 | 10 | 10 |  | 10 | 
Cn1nc(CF)c(C(F)(F)S(=O)(=O)C2=NOC(C)(C)C2)n1 [Compound No. 1.01, 4-[(5,5-dimethyl-4,5-dihydro-isoxazole-3-sulfonyl)-difluoro-methyl]-5-fluoromethyl-2-methyl-2H-[1,2,3]triazole] | 10 | 10 | 10 | 10 | 10 |  | 54
CCn1ncc(C(F)S(=O)(=O)C2=NOC(C)(C)C2)n1 (stereo not shown) [1.37] | 10 | 10 | 9 | 10 |  | 9 | 
Cc1nn(C(F)F)nc1C(F)(F)S(=O)(=O)C1=NOC(C)(C)C1 [1.20] | 10 | 10 | 10 | 10 |  | 9 | 
CC1(C)CC(S(=O)(=O)C(F)(F)c2cn(C(C)(C)C)nn2)=NO1 [2.02] | 9 | 3 | 9 | 9 |  | 8 | 
Cn1nc(Br)c(C(F)(F)S(=O)(=O)C2=NOC(C)(C)C2)n1 [1.46] | 10 | 10 | 10 | 10 |  | 9 | 
CC1(C)CC([S+]([O-])C(F)(F)c2cn(C(C)(C)C)nn2)=NO1 (stereo not shown) [2.04] | 6 | 0 | 2 | 0 |  | 6 | 
C=CCn1nc(C(F)[S+]([O-])C2=NOC(C)(C)C2)c(C(F)(F)F)n1 (mixture of isomers) [1.33] | 10 | 4 | 10 | 10 |  | 6 | 
Cn1nc(C(F)(F)F)c(C(F)(F)S(=O)(=O)C2=NOC(C)(C)C2)n1 [1.09] | 10 | 10 | 10 | 10 | 10 |  | 
Cc1nn(C(F)F)nc1C(F)[S+]([O-])C1=NOC(C)(C)C1 (racemic) [Compound No. 1.21] | 10 | 10 | 10 | 10 |  | 10 | 
CCn1nc(C(F)(F)F)c(C(F)(F)[S+]([O-])C2=NOC(C)(C)C2)n1 (racemic) [Compound No. 1.16] | 10 | 10 | 10 | 10 |  | 9 | 
